Key:
K-Ras G12D = biological target: T1, K-Ras G12D (Homo sapiens, UniProt P01116, G12D); experiment: HTRF resonance energy transfer assay, K-Ras G12D / SOS1 interaction; assay type: biochemical; settings: HTRF assay of Example 5; read-out: IC50 against K-Ras G12D
T1 construct: made in house; host or cells: E. coli BL21 (DE3)
Outline: (§1)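 GST-tagged K-Ras (WT or mutant) bound to anti-GST-Eu donor was mixed with His-hSOS1 bound to anti-6His-XL665 acceptor in ~5 mM HEPES pH 7.4, 150 mM NaCl, 1 mM DTT, 0.05% BSA, 0.0025% Igepal. HTRF (ex 337, em 620/665 nm) was read after ~10 min or longer. IC50 came from the 665/620 ratio over duplicates from 10 μM to 0.01 μM.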

K-Ras G12S = biological target: T2, K-Ras G12S (Homo sapiens, UniProt P01116, G12S); experiment: HTRF resonance energy transfer assay, K-Ras G12S / SOS1 interaction; assay type: biochemical; settings: HTRF assay of Example 5; read-out: IC50 against K-Ras G12S
T2 construct: made in house; host or cells: E. coli BL21 (DE3)
T2 sequence (P01116 1-188 isoform P01116-2 G12S): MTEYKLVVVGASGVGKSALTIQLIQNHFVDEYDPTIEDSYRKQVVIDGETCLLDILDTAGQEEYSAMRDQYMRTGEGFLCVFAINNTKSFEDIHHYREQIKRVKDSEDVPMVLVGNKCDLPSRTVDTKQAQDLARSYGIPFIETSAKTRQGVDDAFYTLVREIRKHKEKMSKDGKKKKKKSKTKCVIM
Outline: as §1

A549 cells = experiment: Ras cellular assay, growth of cells with K-Ras G12S mutation (CellTiter-Glo); assay type: cell-based; settings: Homo sapiens, cell growth, Example 9, G12S mutation, read-out: IC50 against A549 cells
Experimental: For example, this assay can be also used to assess a selective growth inhibition of a mutant Ras protein relative to a wildtype, or relative to a different mutant Ras protein.
A549 (ATCC CCL-185) and LS123 (ATCC CCL-255) cell lines comprise a G12S mutation and can be used to assess Ras cellular signaling in vitro, e.g., in response to the compounds herein. A549 culture medium is prepared with RPMI-1640 and 10% heat-inactivated FBS. LS123 culture medium is prepared with RPMI-1640 and 10% heat-inactivated FBS. A CellTiter-Glo (CTG) luminescent based assay (Promega) is used to assess growth of the cells, as a measurement of the ability of the compounds herein to inhibit Ras signaling in the cells. The cells (e.g., 800 per well) are seeded in their respective culture medium in standard tissue culture-treated 384-well format plates (Falcon #08-772-116) or ultra-low attachment surface 384-well format plates (S-Bio #MS-9384WZ). The day after plating, cells are treated with a dilution series (e.g., a 10 point 3-fold dilution series) of the compounds herein (e.g., approximately 40 μL final volume per well). Cell viability can be monitored (e.g., approximately 6 days later) according to the manufacturer's recommended instructions, where the CellTiter-Glo reagent is added (e.g., approximately 10 μL), vigorously mixed, covered, and placed on a plate shaker (e.g., approximately for 20 min) to ensure sufficient cell lysis prior to assessment of luminescent signal. The IC50 values are determined using the four parameter fit. The resulting IC50 value is a measurement of the ability of the compounds herein to reduce cell growth of Ras-driven cells (e.g., tumor cell lines) in vitro and/or in vivo.

SW620 cells = experiment: Ras cellular assay, growth of cells with K-Ras G12V mutation (CellTiter-Glo); assay type: cell-based; settings: Homo sapiens, SW-620; cell growth, Example 9, G12V mutation; read-out: IC50 against SW620 cells
Outline: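 SW620 (K-Ras G12V) cells, e.g. 800/well in RPMI-1640 with 10% heat-inactivated FBS on standard or ultra-low attachment plates, were dosed the day after plating with e.g. a 10-point 3-fold series. Viability by CellTiter-Glo luminescence about 6 days later; IC50 from four-parameter fit.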

K-Ras WT = biological target: T3, K-Ras WT (Homo sapiens, UniProt P01116); experiment: HTRF resonance energy transfer assay, K-Ras WT / SOS1 interaction; assay type: biochemical; settings: HTRF assay of Example 5; read-out: IC50 against K-Ras WT
T3 construct: made in house; host or cells: E. coli BL21 (DE3)
T3 sequence (P01116 1-188 isoform P01116-2): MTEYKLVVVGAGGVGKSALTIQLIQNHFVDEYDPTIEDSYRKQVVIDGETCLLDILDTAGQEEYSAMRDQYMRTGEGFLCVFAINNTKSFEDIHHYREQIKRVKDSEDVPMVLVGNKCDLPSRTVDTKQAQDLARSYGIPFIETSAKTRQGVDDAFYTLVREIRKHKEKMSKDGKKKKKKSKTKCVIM
Outline: as §1

K-Ras G12V = biological target: T4, K-Ras G12V (Homo sapiens, UniProt P01116, G12V); experiment: HTRF resonance energy transfer assay, K-Ras G12V / SOS1 interaction; assay type: biochemical; settings: HTRF assay of Example 5; read-out: IC50 against K-Ras G12V
T4 construct: made in house; host or cells: E. coli BL21 (DE3)
T4 sequence (P01116 1-188 isoform P01116-2 G12V): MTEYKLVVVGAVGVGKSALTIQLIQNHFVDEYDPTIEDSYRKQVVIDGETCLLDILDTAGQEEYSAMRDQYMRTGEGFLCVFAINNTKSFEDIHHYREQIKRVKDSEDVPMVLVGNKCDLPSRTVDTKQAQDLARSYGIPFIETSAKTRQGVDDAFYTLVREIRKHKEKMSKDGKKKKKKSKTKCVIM
Outline: as §1

T1 sequence (P01116 1-188 isoform P01116-2 G12D): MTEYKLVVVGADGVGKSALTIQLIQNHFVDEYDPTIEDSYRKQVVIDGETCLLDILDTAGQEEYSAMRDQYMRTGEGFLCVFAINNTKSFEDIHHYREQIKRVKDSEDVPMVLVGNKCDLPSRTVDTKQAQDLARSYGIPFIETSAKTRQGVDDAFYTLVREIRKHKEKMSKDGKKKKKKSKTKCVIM

SMILES	IC50 (K-Ras G12D) [nM]	IC50 (K-Ras G12S) [nM]	IC50 (A549 cells) [nM]	IC50 (SW620 cells) [nM]	IC50 (K-Ras WT) [nM]	IC50 (K-Ras G12V) [nM]
N#Cc1c(N)sc2c(F)ccc(-c3c(Cl)c4c5c(nc(OC[C@@]67CCCN6C[C@H](F)C7)nc5c3F)N(C3CCC(NC(=O)[C@@H]5N[C@H]5C5CC5)C3)CCO4)c12 (stereo partly drawn) [Compound 920, (2R,3S)—N-(3-(9-(2-amino-3-cyano-7-fluorobenzo[b]thiophen-4-yl)-8-chloro-10-fluoro-2-(((2R,7aS)-2-fluorotetrahydro-1H-pyrrolizin-7a(5H)-yl)methoxy)-5,6-dihydro-4H-[1,4]oxazepino[5,6,7-de]quinazolin-4-yl)cyclopentyl)-3-cyclopropylaziridine-2-carboxamide]	< 100	< 100	< 5000	< 5000	< 100	< 100
N#Cc1c(N)sc2c(F)ccc(-c3c(Cl)c4c5c(nc(OC[C@@]67CCCN6C[C@H](F)C7)nc5c3F)N(C3CCC(=C(F)F)C3)CCO4)c12 (stereo partly drawn) [Compound 605, 2-amino-4-(8-chloro-4-(3-(difluoromethylene)cyclopentyl)-10-fluoro-2-(((2R,7aS)-2-fluorotetrahydro-1H-pyrrolizin-7a(5H)-yl)methoxy)-5,6-dihydro-4H-[1,4]oxazepino[5,6,7-de]quinazolin-9-yl)-7-fluorobenzo[b]thiophene-3-carbonitrile]		< 100	< 5000	< 5000	< 100	< 100
N#Cc1c(N)sc2c(F)ccc(-c3c(Cl)c4c5c(nc(OC[C@@]67CCCN6C[C@H](F)C7)nc5c3F)N(C3CC5(C3)CC5(F)F)CCO4)c12 (stereo partly drawn) [Compound 1004, 2-amino-4-(8-chloro-4-(1,1-difluorospiro[2.3]hexan-5-yl)-10-fluoro-2-(((2R,7aS)-2-fluorotetrahydro-1H-pyrrolizin-7a(5H)-yl)methoxy)-5,6-dihydro-4H-[1,4]oxazepino[5,6,7-de]quinazolin-9-yl)-7-fluorobenzo[b]thiophene-3-carbonitrile]			< 5000	< 5000	< 100	< 100
C[C@H]1CN(C23CC(C2)C3)c2nc(OC[C@@]34CCCN3C[C@H](F)C4)nc3c(F)c(-c4ccc(F)c5sc(N)c(C#N)c45)c(Cl)c(c23)O1 [Compound 687, 2-amino-4-((6S)-4-(bicyclo[1.1.1]pentan-1-yl)-8-chloro-10-fluoro-2-(((2R,7aS)-2-fluorotetrahydro-1H-pyrrolizin-7a(5H)-yl)methoxy)-6-methyl-5,6-dihydro-4H-[1,4]oxazepino[5,6,7-de]quinazolin-9-yl)-7-fluorobenzo[b]thiophene-3-carbonitrile]	< 100	< 100	< 5000	< 5000	< 100	
N#Cc1c(N)sc2c(F)ccc(-c3c(Cl)c4c5c(nc(OC[C@@]67CCCN6C[C@H](F)C7)nc5c3F)N(C3CCC(COC(F)F)C3)CCO4)c12 (stereo partly drawn) [Compound 933, 2-amino-4-(8-chloro-4-(3-((difluoromethoxy)methyl)cyclopentyl)-10-fluoro-2-(((2R,7aS)-2-fluorotetrahydro-1H-pyrrolizin-7a(5H)-yl)methoxy)-5,6-dihydro-4H-[1,4]oxazepino[5,6,7-de]quinazolin-9-yl)-7-fluorobenzo[b]thiophene-3-carbonitrile]		< 100	< 5000	< 5000	< 100	< 100
C[C@H](Oc1nc2c3c(c(Cl)c(-c4ccc(F)c5sc(N)c(C#N)c45)c(F)c3n1)OCCN2C1CCOCC1)[C@@H]1CCCN1C [Compound 904, 2-amino-4-(8-chloro-10-fluoro-2-((S)-1-((S)-1-methylpyrrolidin-2-yl)ethoxy)-4-(tetrahydro-2H-pyran-4-yl)-5,6-dihydro-4H-[1,4]oxazepino[5,6,7-de]quinazolin-9-yl)-7-fluorobenzo[b]thiophene-3-carbonitrile]		< 100	< 5000	< 5000	< 100	< 100
N#Cc1c(N)sc2c(F)ccc(-c3c(Cl)c4c5c(nc(OC[C@@]67CCCN6C[C@H](F)C7)nc5c3F)N(C3COC5(CNC5)C3)CCO4)c12 (stereo partly drawn) [Compound 1093, 2-amino-4-(8-chloro-10-fluoro-2-(((2R,7aS)-2-fluorotetrahydro-1H-pyrrolizin-7a(5H)-yl)methoxy)-4-(5-oxa-2-azaspiro[3.4]octan-7-yl)-5,6-dihydro-4H-[1,4]oxazepino[5,6,7-de]quinazolin-9-yl)-7-fluorobenzo[b]thiophene-3-carbonitrile]	< 100	< 100	< 5000		< 100	< 100

The remaining lines, values ahead:

IC50 (K-Ras G12D) [nM]	IC50 (K-Ras G12S) [nM]	IC50 (A549 cells) [nM]	IC50 (SW620 cells) [nM]	IC50 (K-Ras WT) [nM]	IC50 (K-Ras G12V) [nM]	SMILES
< 100	< 100	< 5000	< 5000	< 100	< 100	CC1(C)CCC(N2CCOc3c(Cl)c(-c4ccc(F)c5sc(N)c(C#N)c45)c(F)c4nc(OC[C@@]56CCCN5C[C@H](F)C6)nc2c34)CO1 (stereo partly drawn) [Compound 603, 2-amino-4-(8-chloro-4-(6,6-dimethyltetrahydro-2H-pyran-3-yl)-10-fluoro-2-(((2R,7aS)-2-fluorotetrahydro-1H-pyrrolizin-7a(5H)-yl)methoxy)-5,6-dihydro-4H-[1,4]oxazepino[5,6,7-de]quinazolin-9-yl)-7-fluorobenzo[b]thiophene-3-carbonitrile]
< 100	< 100	< 5000	< 5000	< 100	< 100	C[C@H](Oc1nc2c3c(c(Cl)c(-c4ccc(F)c5sc(N)c(C#N)c45)c(F)c3n1)OCCN2C1CCCOC1)[C@@H]1CCCN1C (stereo partly drawn) [Compound 880, 2-amino-4-(8-chloro-10-fluoro-2-((S)-1-((S)-1-methylpyrrolidin-2-yl)ethoxy)-4-(tetrahydro-2H-pyran-3-yl)-5,6-dihydro-4H-[1,4]oxazepino[5,6,7-de]quinazolin-9-yl)-7-fluorobenzo[b]thiophene-3-carbonitrile]
< 100	< 100	< 5000	< 5000	< 100		N#Cc1c(N)sc2c(F)ccc(-c3c(Cl)c4c5c(nc(OC[C@@]67CCCN6C[C@H](F)C7)nc5c3F)N(C3CC(NC(=O)C(F)Cl)C3)CCO4)c12 (stereo partly drawn) [Compound 724, N-(3-(9-(2-amino-3-cyano-7-fluorobenzo[b]thiophen-4-yl)-8-chloro-10-fluoro-2-(((2R,7aS)-2-fluorotetrahydro-1H-pyrrolizin-7a(5H)-yl)methoxy)-5,6-dihydro-4H-[1,4]oxazepino[5,6,7-de]quinazolin-4-yl)cyclobutyl)-2-chloro-2-fluoroacetamide]
	< 100	< 5000	< 5000	< 100	< 100	CCC1CC(N2CCOc3c(Cl)c(-c4ccc(F)c5sc(N)c(C#N)c45)c(F)c4nc(OC[C@@]56CCCN5C[C@H](F)C6)nc2c34)CCO1 (stereo partly drawn) [Compound 903, 2-amino-4-(8-chloro-4-(2-ethyltetrahydro-2H-pyran-4-yl)-10-fluoro-2-(((2R,7aS)-2-fluorotetrahydro-1H-pyrrolizin-7a(5H)-yl)methoxy)-5,6-dihydro-4H-[1,4]oxazepino[5,6,7-de]quinazolin-9-yl)-7-fluorobenzo[b]thiophene-3-carbonitrile]

Source: patent US12209102B2, “Heterocyclic compounds and uses thereof” (Kumquat Biosciences Inc., priority 2022, dated 2025)
